Test results as given in the NIST ThermoML archive (doi:10.1016/j.jct.2006.09.016).

How the values were obtained:
[1] = Crystal; DTA
[2] = Molar enthalpy of transition or fusion; details: Crystal; DSC
[3] = molar heat capacity at constant pressure; details: 101.33 kPa, Crystal

ON=Cc1ccccn1 [2-pyridinealdoxime]
Details | Molar enthalpy of transition or fusion [kcal/mol] | Normal melting temperature [°C]
[1] | – | 113.08
[2] | 4.78 | –

[3]
Details | molar heat capacity at constant pressure [J/K/mol]
80.46 K | 51.68
84.39 K | 53.78
87.27 K | 55.38
90.22 K | 57.07
93.26 K | 58.78
96.22 K | 60.42
99.1 K | 61.8
102.07 K | 63.16
105.13 K | 64.65
108.12 K | 65.95
111.05 K | 67.4
113.93 K | 68.69
116.9 K | 69.94
119.96 K | 71.33
122.97 K | 72.93
125.94 K | 74.14
128.85 K | 75.41
131.74 K | 76.56
134.71 K | 77.89
137.77 K | 79.05
140.8 K | 80.49
143.79 K | 81.65
146.74 K | 82.72
149.66 K | 83.99
152.56 K | 85.27
155.54 K | 86.71
158.61 K | 87.83
161.66 K | 88.91
164.67 K | 90.3
167.66 K | 91.7
170.63 K | 92.91
173.58 K | 93.88
176.5 K | 95.23
179.4 K | 96.67
182.38 K | 97.92
185.45 K | 99.23
188.5 K | 100.67
191.52 K | 101.97
194.53 K | 103.16
197.5 K | 104.64
200.47 K | 106.06
203.41 K | 107
206.33 K | 108.59
209.23 K | 109.82
212.22 K | 111.35
215.29 K | 112.9
218.35 K | 113.97
221.38 K | 115.37
224.38 K | 117.31
227.37 K | 118.7
230.3 K | 120
233.32 K | 121.77
236.35 K | 123.52
239.26 K | 124.25
242.25 K | 125.83
245.32 K | 127.09
248.39 K | 128.4
251.44 K | 129.85
254.47 K | 130.36
257.5 K | 131.52
260.5 K | 132.74
263.49 K | 134.49
266.46 K | 136.14
269.41 K | 137.72
272.35 K | 139.5
275.26 K | 140.58
278.17 K | 142.55
281.06 K | 143.7
284.01 K | 145.45
287.04 K | 147.06
290.04 K | 148.68
293.01 K | 149.59
295.98 K | 150.99
298.93 K | 152.1
301.87 K | 153.86
304.78 K | 154.72
307.69 K | 155.91
310.57 K | 157.91
313.44 K | 159.33
316.29 K | 160.28
319.11 K | 161.83
321.92 K | 163.28
324.8 K | 164.64
327.74 K | 165.88
330.66 K | 167.18
333.57 K | 168.11
336.45 K | 169.62
339.31 K | 171.01
342.16 K | 172.57
344.98 K | 173.51
347.78 K | 174.14
350.55 K | 175.82
353.29 K | 176.47
355.96 K | 177.08
358.4 K | 178.59
360.61 K | 179.15
363.31 K | 180.38
365.84 K | 181.56
367.88 K | 182.97
370.49 K | 183.67
372.97 K | 184.42
